Test results reported in article PMC11289669, “BAR502/fibrate conjugates: synthesis, biological evaluation and metabolic profile” (Frontiers in Chemistry, 2024).
Values joined by “and” are separate entries in the source; they are usually repeats but may differ in a detail not shown here. Identical values can stand only once.

Assays:
FXR [1] = target: T1, FXR (Homo sapiens, UniProt Q96RI1); experiment: AlphaScreen coactivator (SRC-1) recruitment assay on FXR; assay type: biochemical; conditions: for FXR efficacy (% vs. CDCA): AlphaScreen SRC-1 recruitment, compounds at 10 μM, CDCA = 100%
T1 sequence (Q96RI1 262-486 limits assumed): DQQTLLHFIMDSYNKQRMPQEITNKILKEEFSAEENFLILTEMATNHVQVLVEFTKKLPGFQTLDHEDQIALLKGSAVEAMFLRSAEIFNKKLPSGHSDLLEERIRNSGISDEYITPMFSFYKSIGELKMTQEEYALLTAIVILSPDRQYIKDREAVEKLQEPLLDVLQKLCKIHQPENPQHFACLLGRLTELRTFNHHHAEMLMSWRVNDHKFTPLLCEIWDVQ
Description: (§1) Compounds’ ability to mediate cofactor recruitment was evaluated by employing AlphaScreen GST Detection Kit (PerkinElmer). Particularly, FXR agonism was evaluated employing 10 nM FXR-LBD GST-fused (Thermo Scientific) and 30 nM of biotinylated SRC1 peptide ([…]) in the presence of 20 μg/mL donor and acceptor beads and in buffer containing 50 mM Tris-HCl (pH7.4), 20 mM KCl, 1 mM DTT, and 0.1% BSA. For PPARα assay, a buffer containing 50 mM MOPS, 50 mM NaF, 0.05 mM CHAPS, and 0.05% BSA (pH = 7.4) was used, and 20 nM PPARα LBD GST fused (Thermo Scientific) and 60 nM of biotinylated SRC1 peptide were employed. Both acceptor and donor beads were added to reach 20 μg/mL final concentration. Incubations were performed in a final volume of 25 μL employing 384 wells Optiplate and Alpha signal was measured with Envision 2,105 (Perkin Elmer) multimode plate reader. For efficacy, compounds were tested at 10 μM for FXR and 50 μM for PPARα.

PPARα = target: T2, PPARα (Homo sapiens, UniProt Q07869); experiment: AlphaScreen coactivator (SRC-1) recruitment assay on PPARα; assay type: biochemical; conditions: AlphaScreen SRC-1 recruitment; compounds at 50 µM (footnote); fenofibrate = 100%
T2 construct: 20 nM PPARα LBD GST fused (Thermo Scientific); purchased Thermo Scientific
T2 sequence (Q07869 239-466 limits assumed): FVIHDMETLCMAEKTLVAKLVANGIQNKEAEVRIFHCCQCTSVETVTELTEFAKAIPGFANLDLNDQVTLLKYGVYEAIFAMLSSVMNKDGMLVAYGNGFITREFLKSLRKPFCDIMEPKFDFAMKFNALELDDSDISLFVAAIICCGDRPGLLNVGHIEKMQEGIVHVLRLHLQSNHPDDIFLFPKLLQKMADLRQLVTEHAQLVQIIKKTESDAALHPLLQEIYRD
Description: as §1, with “For efficacy, compounds were tested at 10 μM for FXR and 50 μM for PPARα.” left out

GPBAR1 = target: T3, GPBAR1 (Homo sapiens, UniProt Q8TDU6); experiment: GPBAR1 transactivation (CRE-luciferase reporter) assay in HEK-293T cells; assay type: cell-based; conditions: for Emax: 18 h, read-out: GPBAR1 efficacy (% vs. TLCA); for Emax / GPBAR1 efficacy (% vs. TLCA): transactivation on HEK-293T cells, TLCA 10 μM = 100%; for EC50: transactivation assay, HEK-293T cells
T3 construct: expressed in transfected cells; host or cells: HEK-293T
T3 sequence (Q8TDU6 1-330): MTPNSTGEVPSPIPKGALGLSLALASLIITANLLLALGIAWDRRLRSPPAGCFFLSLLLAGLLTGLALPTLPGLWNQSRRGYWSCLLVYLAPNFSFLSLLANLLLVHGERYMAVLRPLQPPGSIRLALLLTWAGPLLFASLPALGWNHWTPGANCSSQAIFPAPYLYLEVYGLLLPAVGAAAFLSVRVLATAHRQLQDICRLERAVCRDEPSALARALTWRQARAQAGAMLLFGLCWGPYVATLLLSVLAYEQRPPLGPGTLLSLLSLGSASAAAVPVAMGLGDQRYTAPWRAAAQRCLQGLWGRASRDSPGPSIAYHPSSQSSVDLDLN
Description: (§2) HepG2 and HEK-293T cells were cultured at 37 °C in minimal essential medium (MEM) and Dulbecco’s Modified Eagle Medium (DMEM) respectively, supplemented with 10% fetal bovine serum, 1% L-glutamine, 100 U/mL penicillin, and 100 μg/mL streptomycin. To investigate FXR-mediated transactivation, the HepG2 cells were transfected with 200 ng of the reporter vector p (hsp27)TK-Luc containing the FXR response element IR1 cloned from the promoter of heat shock protein 27 (hsp27), plus 100 ng pSG5-FXR, 100 ng pSG5-RXR, and 100 ng pGL4.70 Renilla. To evaluate GPBAR1 mediated transactivation, HEK-293T cells were transfected with 200 ng of human pGL4.29 (Promega), a reporter vector containing a cAMP response element (CRE) that drives the transcription of the luciferase reporter gene luc2P, with 100 ng of pCMVSPORT6-human GPBAR1, and with 100 ng of pGL4.70. At 24 h post-transfection, cells were stimulated 18 h with 10 μM TLCA (taurolithocholic acid a GPBAR1 agonist) or CDCA (FXR agonist) and compounds. To calculate the EC50 on FXR and GPBAR1, dose-response curves were performed in HEK-293T cells transfected as described above and then treated with increasing concentrations of compounds (from 0.1 to 50 µM). After treatments, cells were lysed in 100 μL of lysis buffer (25 mM Tris-phosphate, pH 7.8; 2 mM DTT; 10% glycerol; 1% Triton X-100), and 10 μL of cellular lysate was assayed for luciferase activity using the Firfly &Renilla Luciferase assay kit (Biotium). Luminescence was measured using Glomax 20/20 luminometer (Promega). Luciferase activities were assayed and normalized with Renilla activities.

FXR [2] = target: T4, FXR (Homo sapiens, UniProt Q96RI1); experiment: FXR transactivation (luciferase reporter) assay in HepG2 cells; assay type: cell-based; conditions: for EC50: HepG2 cells
T4 construct: expressed in transfected cells; host or cells: HepG2 (the text says EC50 dose-response curves were run in HEK-293T)
T4 sequence (Q96RI1 1-486): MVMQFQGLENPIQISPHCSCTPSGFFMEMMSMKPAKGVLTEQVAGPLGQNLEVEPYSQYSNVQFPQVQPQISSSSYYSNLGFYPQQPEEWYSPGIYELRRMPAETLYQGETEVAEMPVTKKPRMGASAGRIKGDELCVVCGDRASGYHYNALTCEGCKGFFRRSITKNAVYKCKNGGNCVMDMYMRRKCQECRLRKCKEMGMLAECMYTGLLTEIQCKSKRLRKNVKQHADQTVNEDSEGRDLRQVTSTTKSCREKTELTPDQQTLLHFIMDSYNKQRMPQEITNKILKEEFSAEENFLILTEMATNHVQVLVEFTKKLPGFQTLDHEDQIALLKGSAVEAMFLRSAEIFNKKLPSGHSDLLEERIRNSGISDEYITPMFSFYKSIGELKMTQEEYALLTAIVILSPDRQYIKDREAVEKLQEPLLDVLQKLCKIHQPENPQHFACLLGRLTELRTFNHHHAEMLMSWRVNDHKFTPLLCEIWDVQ
T4 sequence (P19793 1-462 partner): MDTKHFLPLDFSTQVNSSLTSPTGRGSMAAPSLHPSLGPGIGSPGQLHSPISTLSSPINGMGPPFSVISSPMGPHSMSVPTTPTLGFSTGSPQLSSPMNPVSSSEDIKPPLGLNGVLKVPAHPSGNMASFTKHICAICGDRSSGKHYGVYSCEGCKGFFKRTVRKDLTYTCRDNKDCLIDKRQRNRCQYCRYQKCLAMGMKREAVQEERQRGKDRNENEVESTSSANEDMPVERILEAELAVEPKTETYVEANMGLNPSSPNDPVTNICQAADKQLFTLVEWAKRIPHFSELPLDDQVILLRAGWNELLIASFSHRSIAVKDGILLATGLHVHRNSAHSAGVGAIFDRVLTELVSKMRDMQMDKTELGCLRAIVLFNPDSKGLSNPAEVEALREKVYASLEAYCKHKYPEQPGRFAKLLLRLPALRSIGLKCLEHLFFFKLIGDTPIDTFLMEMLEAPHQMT
Description: as §2

Row | FXR efficacy vs. CDCA (transactivation) (FXR [2]) [%] | Compound | FXR efficacy (% vs. CDCA) (FXR [1]) | EC50 (FXR [1]; AlphaScreen coactivator recruitment, FXR with SRC-1) [µM] | PPARα efficacy (% vs. fenofibrate) (PPARα) [%] | Emax (GPBAR1) [%] | EC50 (GPBAR1) [µM] | GPBAR1 efficacy (% vs. TLCA) (GPBAR1) [%] | EC50 (FXR [2]) [µM]
1 | – | CC[C@@H]1C2C[C@H](OC(=O)C(C)(C)Oc3ccc(Cl)cc3)CC[C@]2(C)C2CC[C@@]3(C)C(CC[C@@H]3[C@H](C)CCOC(=O)C(C)(C)Oc3ccc(Cl)cc3)C2[C@@H]1O (stereo partly drawn) [Compound 3] | 48% and 48.0 ± 5.5% | 17.9 ± 2.6 | 27 ± 10 | 101 | 1.8 ± 0.35 | 101.0 ± 0.4 | 25 ± 0.01
2 | – | CC[C@@H]1C2C[C@H](OC(=O)C(C)(C)CCCOc3cc(C)ccc3C)CC[C@]2(C)C2CC[C@@]3(C)C(CC[C@@H]3[C@H](C)CCO)C2[C@@H]1O (stereo partly drawn) [Compound 8] | – | – | 5.3 ± 0.8 | 29.4 ± 5.1 | – | – | –
3 | – | CC[C@@H]1C2C[C@H](OC(=O)C(C)(C)Oc3ccc(Cl)cc3)CC[C@]2(C)C2CC[C@@]3(C)C(CC[C@@H]3[C@H](C)CCO)C2[C@@H]1O (stereo partly drawn) [Compound 2] | – | – | – | 46 ± 16 | – | – | –
4 | – | CC[C@@H]1C2C[C@H](OC(=O)C(C)(C)Oc3ccc(C(=O)c4ccc(Cl)cc4)cc3)CC[C@]2(C)C2CC[C@@]3(C)C(CC[C@@H]3[C@H](C)CCO)C2[C@@H]1O (stereo partly drawn) [Compound 5] | – | – | 6.6 ± 1.9 | 40 ± 0.7 | – | – | –
5 | – | CC[C@@H]1C2C[C@H](OC(=O)C(C)(C)Oc3ccc(C(=O)c4ccc(Cl)cc4)cc3)CC[C@]2(C)C2CC[C@@]3(C)C(CC[C@@H]3[C@H](C)CCOC(=O)C(C)(C)Oc3ccc(C(=O)c4ccc(Cl)cc4)cc3)C2[C@@H]1O (stereo partly drawn) [Compound 6] | – | – | 1.7 ± 0.5 | 30 ± 17 | – | – | –
6 | 457 | CCC1C(O)C2C3CCC(C(C)CC(=O)O)C3(C)CCC2C2(C)CCC(O)CC12 (stereo not drawn) [BAR505, reference compound] | – | – | 40 | – | 3.2 ± 1.1 | 103.6 | 1.9 ± 0.14
7 | – | CC[C@@H]1C2C[C@H](O)CC[C@]2(C)C2CC[C@@]3(C)C(CC[C@@H]3[C@H](C)CCOC(=O)C(C)(C)Oc3ccc(C(=O)c4ccc(Cl)cc4)cc3)C2[C@@H]1O (stereo partly drawn) [Compound 4] | 14.0 ± 1.8% | – | 13 ± 3 | 41 ± 3 | – | – | –
8 | – | CC[C@@H]1C2C[C@H](OC(=O)C(C)(C)CCCOc3cc(C)ccc3C)CC[C@]2(C)C2CC[C@@]3(C)C(CC[C@@H]3[C@H](C)CCOC(=O)C(C)(C)CCCOc3cc(C)ccc3C)C2[C@@H]1O (stereo partly drawn) [Compound 9] | 5.1 ± 1.9% | – | – | 28.5 ± 0.4 | – | – | –
9 | – | CC[C@@H]1C2C[C@H](O)CC[C@]2(C)C2CC[C@@]3(C)C(CC[C@@H]3[C@H](C)CCOC(=O)C(C)(C)CCCOc3cc(C)ccc3C)C2[C@@H]1O (stereo partly drawn) [Compound 7] | 4.1 ± 0.6% | – | 22 ± 18 | 14 ± 1.3 | – | – | –
